Source: patent US10106523B2, “Amide compound” (ASTELLAS PHARMA INC., priority 2014, dated 2018)

How the values were obtained:
human EP4 receptor = molecular target: T1, human EP4 receptor (Homo sapiens, UniProt P35408); assay: Human EP4 receptor antagonistic action by measurement of cAMP amount in human Jurkat cells; type: cell-based; conditions: PGE2 100 nmol/L, average of three experiments, read-out: IC50 value with respect to the cAMP production action by PGE2 in human Jurkat cells
T1 construct: purchased Chemicon
Description: Test Example 3: Evaluation Test of Human EP4 Receptor Antagonistic Action by Measurement of cAMP Amount in Human Jurkat Cells
Jurkat cells (derived from human leukemia T lymphoma) were cultured under the conditions of 37° C. and 5% CO2, using an RPMI1640 culture medium (product No. 11879020, Invitrogen Inc.) with 10% fetal bovine serum (FBS) added. After proliferation up to semiconfluency, indomethacin having a final concentration of […] was added thereto, and the cells were further cultured for 18 hours. These cells were collected in a 15 mL Spitz tube, prepared at 1×10^6 cells/mL using a Cell Banker (Mitsubishi Kagaku Iatron), and stored at −80° C. […]
A cAMP HiRange kit (Cisbio international) was used for cAMP measurement. […] After incubation, the fluorescence intensity of the cryptate at 620 nm and the fluorescence intensity of the d2 at 665 nm were measured using ARVO1420 (PerkinElmer). The cAMPs at 280, 70, 17.5, 4.38, 1.09, 0.27, and 0.068 nmol/L were added to each well and the fluorescence intensity was measured as described above to create a standard curve. […] An average value was calculated from three experiment results.

rat EP2 receptor = molecular target: T2, rat EP2 receptor (Rattus norvegicus, UniProt Q62928); assay: Selectivity test: antagonistic action on rat EP2 receptor (cAMP amount, CHO-K1 cells); type: cell-based; conditions: PGE2 100 nmol/L, CHO-K1 cells stably expressing rat EP2; read-out: Concentration up to which no inhibitory action of 50% or more on the increase in intracellular cAMP amount due to PGE2 through the rat EP2 receptor
T2 construct: expressed in transfected cells
Description: Test Example 9: Evaluation Test of Receptor Antagonistic Action on Rat EP1/EP2/EP3 Receptor (Selectivity Test)
The antagonistic action of Compound A on other subtypes ([…], EP2, and EP3) of the rat-derived PGE2 receptor was evaluated. For EP1 and EP3, the intracellular Ca^2+ amount was used as an indicator, and for EP2, the intracellular cAMP amount was used as an indicator, so as to investigate the action of the test compound.
Construction of Rat EP1, EP2, or EP3 Receptor Expressing Vector: A rat EP1 receptor gene (GenBank accession No.: D88751.1), a rat EP2 receptor gene (GenBank accession No.: NM_031088.1), or a rat EP3 receptor gene (GenBank accession No.: NM_012704.1) were inserted respectively into an expression vector pcDNA3.1-V5-His-TOPO (Invitrogen Inc.).
Construction of Cell Stably Expressing Rat EP1, EP2, or EP3 Receptor: […]
The amount of cAMP contained in the cell lysate was measured with a cAMP HiRange kit in the same manner as in Test Example 4. The ratio of the cAMP amount when the test compound was treated was calculated, by taking the cAMP amount with addition of PGE2 having a final concentration of 100 nmol/L as 100% and taking the cAMP amount without addition of PGE2 as 0%.

T2 sequence (Q62928 whole entry): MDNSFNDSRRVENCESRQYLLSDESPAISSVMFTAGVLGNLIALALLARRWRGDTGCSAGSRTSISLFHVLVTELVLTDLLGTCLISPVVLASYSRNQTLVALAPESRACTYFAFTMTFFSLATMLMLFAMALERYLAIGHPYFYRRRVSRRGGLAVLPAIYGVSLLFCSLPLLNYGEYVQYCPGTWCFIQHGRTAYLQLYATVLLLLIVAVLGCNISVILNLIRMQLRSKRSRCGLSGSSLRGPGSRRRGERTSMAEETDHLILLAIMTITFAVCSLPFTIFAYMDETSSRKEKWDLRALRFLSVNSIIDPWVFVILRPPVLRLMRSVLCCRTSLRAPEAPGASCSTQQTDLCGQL
T1 sequence (P35408 whole entry): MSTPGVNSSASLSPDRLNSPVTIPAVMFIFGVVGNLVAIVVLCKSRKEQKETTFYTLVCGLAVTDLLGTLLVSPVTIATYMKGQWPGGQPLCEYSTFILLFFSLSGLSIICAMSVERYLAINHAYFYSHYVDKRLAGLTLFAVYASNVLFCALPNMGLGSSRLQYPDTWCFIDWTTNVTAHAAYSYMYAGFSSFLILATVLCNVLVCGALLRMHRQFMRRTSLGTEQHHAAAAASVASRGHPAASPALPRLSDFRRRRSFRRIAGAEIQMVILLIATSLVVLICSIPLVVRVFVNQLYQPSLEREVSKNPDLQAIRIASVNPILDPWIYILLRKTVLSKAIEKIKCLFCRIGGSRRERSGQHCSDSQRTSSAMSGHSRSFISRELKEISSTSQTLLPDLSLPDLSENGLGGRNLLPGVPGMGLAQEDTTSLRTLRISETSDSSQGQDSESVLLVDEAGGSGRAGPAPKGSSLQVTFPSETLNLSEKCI

IC50 (human EP4 receptor): 0.16 nM
IC50 (rat EP2 receptor): > 10000 nM
Structure (SMILES): Cc1nn(Cc2cc3ccccc3cn2)c(C(=O)N[C@@H](C)c2ccc(C(=O)O)cc2)c1Br [Compound A, 4-[(1S)-1-({[4-bromo-1-(isoquinolin-3-ylmethyl)-3-methyl-1H-pyrazol-5-yl]carbonyl}amino)ethyl]benzoic acid]
